Target: Proto-oncogene tyrosine-protein kinase Src (Homo sapiens, UniProt P12931)
Experiment: ChEBML_202783
Procedure: The compound was evaluated for its binding affinity towards phosphotyrosine binding pocket of Src protein tyrosine kinase SH2 domain

Chain of Proto-oncogene tyrosine-protein kinase Src (P12931 2-536 limits assumed): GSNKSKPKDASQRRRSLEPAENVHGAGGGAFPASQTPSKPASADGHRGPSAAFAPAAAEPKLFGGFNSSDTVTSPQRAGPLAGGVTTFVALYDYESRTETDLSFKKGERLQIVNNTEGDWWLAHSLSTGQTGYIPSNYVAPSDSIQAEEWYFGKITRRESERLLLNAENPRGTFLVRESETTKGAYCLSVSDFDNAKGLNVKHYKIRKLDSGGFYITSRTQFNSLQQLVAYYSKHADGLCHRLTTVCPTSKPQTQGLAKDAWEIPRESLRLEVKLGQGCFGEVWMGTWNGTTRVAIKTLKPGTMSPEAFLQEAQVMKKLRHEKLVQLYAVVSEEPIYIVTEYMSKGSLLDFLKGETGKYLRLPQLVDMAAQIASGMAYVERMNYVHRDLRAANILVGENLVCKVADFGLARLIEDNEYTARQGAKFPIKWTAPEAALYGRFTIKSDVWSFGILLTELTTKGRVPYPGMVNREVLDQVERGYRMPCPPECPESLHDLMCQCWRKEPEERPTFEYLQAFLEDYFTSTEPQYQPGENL

O=P(O)(O)C(O)c1cccc2ccccc12 (stereo unspecified) [[hydroxy(naphthalen-1-yl)methyl]phosphonic acid]
IC50: > 5 mM

Source: BindingDB's records for doi:10.1016/s0960-894x(02)00140-3 (Aventis Pharma, 2002)
